“And” between values parts separate entries of the source, which are not always exact repeats. Equal entries are not always repeated.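 In this assay, cells in 96-well plates receive the compound at five concentrations for 48 hours. Endpoints are linearly interpolated between the surrounding concentrations. At the GI50, growth is halved. TGI: concentration producing complete growth inhibition.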
How the values were obtained:
Test in all cases: DTP human tumour cell line panel, 48 h
[1] = tested on: 786-0 renal
[2] = tested on: HCT-15 colon
[3] = tested on: HOP-62 NSCLC
[4] = tested on: IGROV1 ovarian
[5] = tested on: K-562 leukemia
[6] = tested on: MDA-MB-231 breast
[7] = tested on: NCI-H522 lung
[8] = tested on: OVCAR-3 ovarian
[9] = tested on: SF-539 CNS
[10] = tested on: SW-620 colon

## CCCCCCCCCCC/C=C\C[C@H](O)C/C=C1/C(=O)C=C[C@@H]1C/C=C\CCCC(=O)OC
[1]
  GI50: 1.03 µM
  TGI: 3.98 µM
[2]
  GI50: 0.59 µM
  TGI: 1.29 µM
[3]
  GI50: 1.01 µM
  TGI: 3.51 µM
[4]
  GI50: 0.742 µM
  TGI: 2.66 µM
[5]
  GI50: 0.898 µM
  TGI: 3.2 µM
[6]
  GI50: 0.895 µM
  TGI: 2.61 µM
[7]
  GI50: 0.753 µM
  TGI: 2.36 µM
[8]
  GI50: 0.671 µM
  TGI: 1.49 µM
[9]
  GI50: 1.02 µM
  TGI: 3.71 µM
[10]
  GI50: 1.09 µM
  TGI: 4.05 µM

## NS(=O)(=O)c1ccc(NCc2cnc3ccccc3n2)cc1
[1]
  TGI: > 100 µM
[2]
  TGI: > 100 µM
[3]
  TGI: > 100 µM
[4]
  TGI: > 100 µM
[5]
  TGI: > 100 µM
[6]
  TGI: > 100 µM
[7]
  TGI: > 100 µM
[8]
  TGI: > 100 µM
[9]
  TGI: > 100 µM
[10]
  TGI: > 100 µM

## O=C(NNc1ccc(F)cc1)C1CCC(CNS(=O)(=O)c2ccc(Cl)c(Cl)c2)CC1 (stereo not given)
[1]
  GI50: 17.9 µM
  TGI: > 50 µM
[2]
  GI50: 7.63 µM
  TGI: > 50 µM
[3]
  GI50: 15.9 µM
  TGI: > 50 µM
[4]
  GI50: 6.79 µM
  TGI: > 50 µM
[5]
  GI50: 1.71 µM
  TGI: > 50 µM
[6]
  GI50: 3.17 µM
  TGI: 25.4 µM
[7]
  GI50: 22.8 µM
  TGI: > 50 µM
[8]
  GI50: 2.11 µM
  TGI: 13.9 µM
[9]
  GI50: 9.77 µM
  TGI: 39.1 µM
[10]
  GI50: 9.03 µM
  TGI: > 50 µM

## Cc1cc2nc3ccc(=[N+](C)C)cc-3sc2cc1N
[1]
  GI50: 1.82 µM and 0.76 µM
  TGI: 10.1 µM and 17.7 µM and 4.3 µM
[2]
  GI50: 0.384 µM and 0.63 µM
  TGI: 10.9 µM and 18.6 µM and 6.98 µM
[3]
  GI50: 1.04 µM and 1.55 µM
  TGI: 3.2 µM and 28.9 µM and 5.72 µM
[4]
  GI50: 1.53 µM and 1.81 µM
  TGI: 5.18 µM and 20.2 µM and 5.32 µM
[5]
  GI50: 0.201 µM and 0.318 µM
[6]
  GI50: 0.739 µM and 0.284 µM
  TGI: 7.51 µM and 7.94 µM and 1.33 µM
[7]
  GI50: 0.274 µM and 1.57 µM
  TGI: 1.66 µM and 8.94 µM and 10.3 µM
[8]
  GI50: 0.178 µM and 0.26 µM
  TGI: 0.992 µM and 9.89 µM and 1.25 µM
[9]
  GI50: 0.343 µM and 0.349 µM
  TGI: 1.64 µM and 8.97 µM and 1.55 µM
[10]
  GI50: 0.289 µM and 1.13 µM
  TGI: 1.24 µM and 9.68 µM and 3.05 µM

## Cc1ccc(/C=C/C(=N/N=C(N)N)c2ccccc2)cc1
[1]
  GI50: 2.41 µM
  TGI: 6.53 µM
[2]
  GI50: 2.74 µM
  TGI: 13.8 µM
[3]
  GI50: 3.57 µM
  TGI: 16 µM
[4]
  GI50: 6.36 µM
  TGI: 23.1 µM
[5]
  GI50: 0.889 µM
  TGI: 10.4 µM
[6]
  GI50: 1.7 µM
  TGI: 4.56 µM
[7]
  GI50: 1.8 µM
  TGI: 5.12 µM
[8]
  GI50: 2.28 µM
  TGI: 6.03 µM
[9]
  GI50: 2.75 µM
  TGI: 8.65 µM
[10]
  GI50: 2.47 µM
  TGI: 13.8 µM

## COc1cc(/C=C2\Oc3cc(OCCCN4CCCC4)ccc3C2=O)cc(OC)c1
[1]
  GI50: 3.86 µM
  TGI: 14.5 µM
[2]
  GI50: 2.84 µM
  TGI: 12.3 µM
[3]
  GI50: 3.68 µM
  TGI: 15.3 µM
[4]
  GI50: 4.4 µM
  TGI: 16.9 µM
[5]
  GI50: 2.3 µM
  TGI: 7.69 µM
[6]
  GI50: 3.28 µM
  TGI: 11.1 µM
[7]
  GI50: 14.2 µM
  TGI: 32.7 µM
[8]
  GI50: 2.74 µM
  TGI: 8.17 µM
[9]
  GI50: 1.66 µM
  TGI: 3.12 µM
[10]
  GI50: 3.15 µM
  TGI: 12.4 µM

## CCCCCCCCCCCCCCCC(=O)N[C@H](/C=C/[C@H](O)CCCCCCCCCCCCC)CO
[1]
  GI50: > 100 µM
  TGI: > 100 µM
[2]
  GI50: > 100 µM
  TGI: > 100 µM
[3]
  GI50: > 100 µM
  TGI: > 100 µM
[4]
  GI50: > 100 µM
  TGI: > 100 µM
[5]
  GI50: > 100 µM
  TGI: > 100 µM
[6]
  GI50: > 100 µM
  TGI: > 100 µM
[7]
  GI50: > 100 µM
  TGI: > 100 µM
[8]
  GI50: > 100 µM
  TGI: > 100 µM
[9]
  GI50: > 100 µM
  TGI: > 100 µM
[10]
  GI50: > 100 µM
  TGI: > 100 µM

## O=S1(=O)NC2CCC3NS(=O)(=O)NC4CCC(N1)N4S(=O)(=O)N23 (stereo not given)
[1]
  TGI: > 100 µM
[2]
  TGI: > 100 µM
[3]
  TGI: > 100 µM
[4]
  TGI: > 100 µM
[5]
  TGI: > 100 µM
[6]
  TGI: > 100 µM
[7]
  TGI: > 100 µM
[8]
  TGI: > 100 µM
[9]
  TGI: > 100 µM
[10]
  TGI: > 100 µM

## C[C@]12CC[C@H]3[C@@H](CCC4=CC(=O)CC[C@@]43C)[C@@H]1CC[C@@H]2C(=O)COS(=O)(=O)c1ccc(Br)cc1
[1]
  TGI: > 22.4 µM
[2]
  TGI: 55.7 µM
[3]
  TGI: 46.6 µM
[4]
  TGI: 3.28 µM
[5]
  TGI: 31.7 µM
[6]
  TGI: 17.7 µM
[7]
  TGI: 2.97 µM
[8]
  TGI: 28 µM
[9]
  TGI: > 60.7 µM
[10]
  TGI: > 44.5 µM

## CCOc1ccc2c(C)cc(=O)oc2c1
[1]
  TGI: > 100 µM
[2]
  TGI: > 100 µM
[3]
  TGI: > 100 µM
[4]
  TGI: > 100 µM
[5]
  TGI: > 100 µM
[6]
  TGI: > 100 µM
[7]
  TGI: > 100 µM
[8]
  TGI: > 100 µM
[9]
  TGI: > 100 µM
[10]
  TGI: > 100 µM

## COc1cccc(-n2cc(-c3nc(Nc4cc(C)[nH]n4)c4ccccc4n3)nn2)c1
[1]
  GI50: 2.89 µM
  TGI: 9.85 µM
[2]
  GI50: 0.228 µM
  TGI: 9.23 µM
[3]
  GI50: 1.64 µM
  TGI: 8.4 µM
[4]
  GI50: 1.69 µM
  TGI: 10.1 µM
[5]
  GI50: 2.59 µM
  TGI: 14.7 µM
[6]
  GI50: 3.02 µM
  TGI: 15.6 µM
[7]
  GI50: 3.38 µM
  TGI: 10.2 µM
[8]
  GI50: 5.71 µM
  TGI: 12.6 µM
[9]
  GI50: 4.25 µM
  TGI: 11.1 µM
[10]
  GI50: 5.22 µM
  TGI: 14.9 µM

## CCC(C)[C@H](NC(=O)NC(=O)NC(=O)CI)C(=O)OC (stereo not given in full)
[1]
  GI50: 11.3 µM
  TGI: 23.4 µM
[2]
  GI50: 1.76 µM
  TGI: 3.42 µM
[3]
  GI50: 16.3 µM
  TGI: 31.4 µM
[4]
  GI50: 3.47 µM
  TGI: 12.1 µM
[5]
  GI50: 2.03 µM
  TGI: 4.48 µM
[6]
  GI50: 13.6 µM
  TGI: 30.7 µM
[7]
  GI50: 1.51 µM
  TGI: 3.01 µM
[8]
  GI50: 2.2 µM
  TGI: 4.66 µM
[9]
  GI50: 10.3 µM
  TGI: 22.8 µM
[10]
  GI50: 1.86 µM
  TGI: 3.61 µM

## COc1ccc(CNC(C)C(=O)O)cc1 (stereo not given)
[1]
  TGI: > 100 µM
[2]
  TGI: > 100 µM
[3]
  TGI: > 100 µM
[4]
  TGI: > 100 µM
[5]
  TGI: > 100 µM
[6]
  TGI: > 100 µM
[7]
  TGI: > 100 µM
[8]
  TGI: > 100 µM
[9]
  TGI: > 100 µM
[10]
  TGI: > 100 µM

## CO[C@]12C=C/C(=C(/C(=O)OCc3cccnc3)C(=O)CCCCCCCC[C@@]3(OC)C=C/C(=C(/C(=O)OCc4cccnc4)C(=O)CCCCCCCC1)O3)O2
[1]
  GI50: 1.32 µM
  TGI: 4.71 µM
[2]
  GI50: 1.04 µM
  TGI: 2.82 µM
[4]
  GI50: 1.75 µM
  TGI: 14.7 µM
[5]
  GI50: 1.46 µM
  TGI: > 50 µM
[6]
  GI50: 2.25 µM
  TGI: > 50 µM
[7]
  GI50: 1.05 µM
  TGI: 2.85 µM
[8]
  GI50: 1.16 µM
  TGI: 3.84 µM
[9]
  GI50: 1.64 µM
  TGI: 7.91 µM
[10]
  GI50: 1.62 µM
  TGI: 6.75 µM

## CNc1cc2nc3cc(NC)c(C)cc3cc2cc1C
[1]
  GI50: 0.683 µM
  TGI: 2.05 µM
[2]
  GI50: 3.7 µM
  TGI: 91.1 µM
[3]
  GI50: 1.3 µM
  TGI: 16 µM
[4]
  GI50: 0.562 µM
  TGI: 16.2 µM
[5]
  GI50: 0.486 µM
  TGI: > 100 µM
[6]
  GI50: 1.08 µM
  TGI: 2.88 µM
[7]
  GI50: 0.552 µM
  TGI: 5.06 µM
[8]
  GI50: 1.32 µM
  TGI: 10 µM
[9]
  GI50: 2.06 µM
  TGI: 16.2 µM

Source: PubChem BioAssay (NCI)
